SMILES strings stand for the structures. Where two headings read alike, the source gives them in different places. Where only a bound is given, the exact number is not on record here.

The target in data set [1] is T1, human receptor PXR (Homo sapiens, UniProt O75469).
T1 sequence (O75469 1-434): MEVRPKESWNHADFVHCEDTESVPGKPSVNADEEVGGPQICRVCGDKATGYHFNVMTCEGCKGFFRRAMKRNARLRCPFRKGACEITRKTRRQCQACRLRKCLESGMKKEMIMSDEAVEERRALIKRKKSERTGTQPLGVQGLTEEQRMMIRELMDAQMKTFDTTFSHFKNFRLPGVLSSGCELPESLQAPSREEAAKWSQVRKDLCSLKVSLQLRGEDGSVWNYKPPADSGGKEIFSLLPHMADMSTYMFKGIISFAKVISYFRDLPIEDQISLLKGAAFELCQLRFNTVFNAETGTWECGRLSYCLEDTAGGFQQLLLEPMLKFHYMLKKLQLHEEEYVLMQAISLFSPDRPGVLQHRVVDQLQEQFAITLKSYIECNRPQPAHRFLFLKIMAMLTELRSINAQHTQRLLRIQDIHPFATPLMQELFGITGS
Kind of data set: activation of the PXR receptor: CYP3A4 luciferase reporter induction in cell line DPX2. The settings on record: for Mean RLU: cell line DPX2P29; for Induction above DMSO: ratio of luciferase activity to DMSO-treated cells. In general terms: In a reporter assay the amount or activity of a reporter protein is the signal.
Experimental: (§1) The activity of the new rifamycins is expressed as a ratio between luciferase activity in cells treated with the tested substance and that of the cells treated with DMSO. The viability and morphology of the cells are analyzed by optical microscopy.

Data set [2] concerns cell line DPX2. Description: viability and morphology of the cells by optical microscopy.
Experimental: as §1
Data set [3] has as its system Micrococcus luteus ATCC 10240. Kind of data set: plate diffusion method, antibacterial activity and MIC. The data set is classed as cell-based. The method, then:
To verify antibacterial activity, the plate diffusion method is used as described in the pharmacopeia: • A quantity of the sample is weighed and slowly dissolved in 25 ml of methanol R • A quantity of 0.05 M phosphate buffer at pH 7.0 is added so as to obtain the following concentrations: 50 μg/ml, 20 μg/ml, 10 μg/ml and 5 μg/ml • Plates were prepared with appropriate culture medium (agar thickness approximately 2-5 mm) inoculated with a suspension of Micrococcus luteus ATCC 10240, Staphylococcus aureus ATCC 6538 and Escherichia coli ATCC 8739. • 0.1 ml of the different concentrations of each sample were dispensed into the wells formed in the agar plates • The plates were held for 1-2 hours at ambient temperature to allow diffusion of the sample and then incubated at 35-39° C. for not less than 18 hours. • The diameters of the inhibition halos of the compounds were measured with a gauge and compared with those of the reference substance, the results being expressed as percentages.

The target of data set [4] is T1, human receptor PXR. The settings on record: 10 μM.
Experimental: as §1
In data set [5] the test system is cell line DPX2. Particulars: human, 10 μM.
Experimental: as §1
Setting [6] is: Table A, 5 μg/ml, inhibition halo vs reference standard (rifamycin S for SX1, rifampicin for SX4 and SX5).
Where [7] appears, read: Table A, 10 μg/ml, inhibition halo vs reference standard (rifamycin S for SX1, rifampicin for SX4 and SX5).
The mark [8] stands for this setting: Table A, 50 μg/ml, inhibition halo vs reference standard (rifamycin S for SX1, rifampicin for SX4 and SX5).
The mark [9] stands for this setting: Table B, 5 μg/ml, compared with standard rifampicin.
Setting [10] is: Table B, 10 μg/ml, compared with standard rifampicin.
[11] abbreviates: Table B, 20 μg/ml, compared with standard rifampicin.
Where [12] appears, read: Table B, 50 μg/ml, compared with standard rifampicin.

Regarding `COC1CCOC2(C)Oc3c(C)c(O)c4c(O)c(c(C=NN5CCN(C)CC5)c(O)c4c3C2=O)NC(=O)C(C)CCCC(C)C(O)C(C)C(O)C(C)C(OC(C)=O)C1C` (centres unmarked) [Example 1, 3-(4′-methyl-1′-piperazinyl-iminomethyl)-16,17,18,19,28,29-hexahydrorifamycin SV], the “Mean RLU” value on human receptor PXR [1] (5 μM) is 8698 RLU; on human receptor PXR [1] (10 μM), 12069 RLU; on human receptor PXR [1] (20 μM), 12918 RLU; at human receptor PXR [1] (40 μM), 14636 RLU. The “Induction above DMSO” value was found to be 39.0 on human receptor PXR [1] (5 μM), 54.1 at human receptor PXR [1] (10 μM), 57.9 at human receptor PXR [1] (20 μM) and 65.6 on human receptor PXR [1] (40 μM). In addition, the “Cell appearance**: cell confluence (%)” value with cell line DPX2 [2] (5 μM), in the data set with cell line DPX2 [2] (10 μM), with cell line DPX2 [2] (20 μM) and in the data set on cell line DPX2 [2] (40 μM) was 30% throughout. Moreover, the “Cell appearance**: morphology” value in the data set on cell line DPX2 [2] (5 μM), in the data set on cell line DPX2 [2] (10 μM), with cell line DPX2 [2] (20 μM) and in the data set with cell line DPX2 [2] (40 μM) was “MCM” throughout. Also, the percentage antibacterial activity in data set [3] (setting [6]) was found to be 0%; in data set [3] (setting [7]), 0%; in data set [3] (setting [8]) it was 42%.
On to `CC[C@H](C)C(=O)O[C@H]1CCC=C2C=C[C@H](C)[C@H](CC[C@@H]3C[C@@H](O)CC(=O)O3)[C@H]21` [Mevastafin, Mevastatin], for which the “Induction above DMSO” value at human receptor PXR [1] (10 μM) is reported as 3.4. In addition, the “Mean RLU” value on human receptor PXR [4] is reported as 758 RLU. For the same molecule, in the data set with cell line DPX2 [5], the “Cell appearance**: cell confluence (%)” value was determined as 30% and the “Cell appearance**: morphology” value is “MCM”.
As to `CO[C@H]1/C=C/O[C@@]2(C)Oc3c(C)c(O)c4c(c3C2=O)C(=O)C(N2CCOCC2)=C(NC(=O)/C(C)=C\C=C\[C@H](C)[C@@H]2OC(C)(C)O[C@@H]([C@@H](C)[C@H](OC(C)=O)[C@@H]1C)[C@@H]2C)C4=O` [Example 23, 3-morpholine-21,23 O-isopropylidenerifamycin S, reference compound], the “Mean RLU” value worked out at 6537 RLU on human receptor PXR [1] (5 μM), 7869 RLU at human receptor PXR [1] (10 μM), 4738 RLU on human receptor PXR [1] (20 μM) and 396 RLU at human receptor PXR [1] (40 μM). Also, the “Induction above DMSO” value on human receptor PXR [1] (5 μM) worked out at 29.3; at human receptor PXR [1] (10 μM), 35.3; on human receptor PXR [1] (20 μM), 21.2; at human receptor PXR [1] (40 μM) it was 1.8. In addition, the “PXR activation, comparison in words” value at human receptor PXR [1] (compared with the compounds of the invention) was “decidedly less active”. Besides, the “Cell appearance**: cell confluence (%)” value amounted to 30% in the data set on cell line DPX2 [2] (5 μM), 30% in the data set with cell line DPX2 [2] (10 μM), 10% in the data set with cell line DPX2 [2] (20 μM) and 0% with cell line DPX2 [2] (40 μM). Also, the “Cell appearance**: morphology” value with cell line DPX2 [2] (5 μM) is on record as “MCM”. For the same molecule, the “MIC (Minimum Inhibitory Concentration)” value in data set [3] (Table A) is less than 5 µg/mL. The percentage antibacterial activity in data set [3] (setting [6]) is listed as 39%; in data set [3] (setting [7]), 40%; in data set [3] (setting [8]), 69%.
`COC1CCOC2(C)Oc3c(C)c(O)c4c(O)c(c(C=NN5CCN(C(C)C)CC5)c(O)c4c3C2=O)NC(=O)C(C)CCCC(C)C(O)C(C)C(O)C(C)C(OC(C)=O)C1C` (centres unmarked) [Example 15, 3-(4′-isopropyl-1′-piperazinyl-iminomethyl)-16,17,18,19,28,29-hexahydrorifamycin SV]: in data set [3] (Table B), the “MIC (Minimum Inhibitory Concentration)” value is more than 50 µg/mL. In addition, the percentage antibacterial activity in data set [3] (setting [9]), in data set [3] (setting [10]), in data set [3] (setting [11]) and in data set [3] (setting [12]) was 0% each time.
For `COC1CCOC2(C)Oc3c(C)c(O)c4c(O)c(c(C=NN5CCN(C)CC5)c(O)c4c3C2=O)NC(=O)C(C)CCCC(C)C2OC(C)(C)OC(C2C)C(C)C(OC(C)=O)C1C` (centres unmarked) [Example 3, 3-(4′-methyl-1′-piperazinyl-iminomethyl)-21,23-O-isopropylidene-16,17,18,19,28,29-hexahydrorifamycin SV], the “Mean RLU” value on human receptor PXR [1] (5 μM) is recorded as 8052 RLU; at human receptor PXR [1] (10 μM), 10848 RLU; at human receptor PXR [1] (20 μM), 7125 RLU; on human receptor PXR [1] (40 μM) it was 4243 RLU. In addition, the “Induction above DMSO” value at human receptor PXR [1] (5 μM) is given as 36.1; at human receptor PXR [1] (10 μM), 48.6; on human receptor PXR [1] (20 μM), 32.0; at human receptor PXR [1] (40 μM), 19.0. In addition, the “Cell appearance**: cell confluence (%)” value in the data set with cell line DPX2 [2] (5 μM) came out at 30%; with cell line DPX2 [2] (10 μM) it was 30%; in the data set with cell line DPX2 [2] (20 μM), 20%; in the data set on cell line DPX2 [2] (40 μM), 20%. Besides, the “Cell appearance**: morphology” value in the data set with cell line DPX2 [2] (5 μM), in the data set with cell line DPX2 [2] (10 μM) and with cell line DPX2 [2] (20 μM) was “MCM” throughout. The “MIC (Minimum Inhibitory Concentration)” value in data set [3] (Table A) is more than 50 µg/mL. Besides, the percentage antibacterial activity in data set [3] (setting [6]), in data set [3] (setting [7]) and in data set [3] (setting [8]) was 0% throughout.
For the molecule `CCN1CCN(N=Cc2c3c(O)c4c(O)c(C)c5c(c4c2O)C(=O)C(C)(OCCC(OC)C(C)C(OC(C)=O)C(C)C(O)C(C)C(O)C(C)CCCC(C)C(=O)N3)O5)CC1` (centres unmarked) [Example 6, 3-(4′-ethyl-1′-piperazinyl-iminomethyl)-16,17,18,19,28,29-hexahydrorifamycin SV], the percentage antibacterial activity in data set [3] (setting [9]) worked out at 0%; in data set [3] (setting [10]), 0%; in data set [3] (setting [11]) it was 0%; in data set [3] (setting [12]), 39%.
For the molecule `CCOCCN1CCN(N=Cc2c3c(O)c4c(O)c(C)c5c(c4c2O)C(=O)C(C)(OCCC(OC)C(C)C(OC(C)=O)C(C)C(O)C(C)C(O)C(C)CCCC(C)C(=O)N3)O5)CC1` (centres unmarked) [Example 12, 3-[4′-(2-ethoxyethyl)-1′-piperazinyl-iminomethyl]-16,17,18,19,28,29-hexahydrorifamycin SV], the “MIC (Minimum Inhibitory Concentration)” value in data set [3] (Table B) was more than 50 µg/mL. Further, the percentage antibacterial activity in data set [3] (setting [9]), in data set [3] (setting [10]), in data set [3] (setting [11]) and in data set [3] (setting [12]) was 0% in each case.

The record behind these values is patent publication US20100168129A1, “DRUGS WITH ANTICHOLESTATIC ACTIVITY” (priority 2007, published 2010).
